Source: patent publication US11401376B2, “Chemical compounds for coating of nanostructures” (Spago Nanomedical AB, priority 2017, dated 2022)

Key:
Assay type in all cases: physicochemical
[1] = Heat treatment, loss of coating (Example 17); details: for Loss of coating: coated nanostructures, 80° C. for 30 minutes, washed on 10 kDa filter, Si/P ratio by ICP-OES
Method: The sample was moved to a 20 mL flask and degassed by three N2-vacuum cycles and was then kept under N2. The sample was heated in a silicon oil bath at 80° C. for 30 minutes and was then cooled to ambient room temperature. A reference aliquot was withdrawn (A). The remaining sample was washed with four times with milliQ water on a 10 kDa Vivaspin 6 centrifugation filter (Sartorious). A reference aliquot (B) was withdrawn from the retentate. Reference aliquots A, and B were analyzed with ICP-OES.

[2] = Stability of coated nanostructures on manganese loading / process conditions (GFC, Example 18)
Method: 200 ml of the crude solution of coated nanostructures of Example 13b was added a solution of 0.256 g MnCl2.4H2O dissolved in 2.56 ml ethylene glycol. The pH was adjusted to 4.07 with 1 M NaOH. The manganese solution was added to the reaction. An aliquot A was taken out. The reaction was heated at 100° C. for 25 h 30 min after which the temperature descended to ambient room temperature. An aliquot B was withdrawn.

[3] = Calcium induced aggregation of the coated nanostructures (Example 15); details: 0-8 mM CaCl2, 10 mM Tris-HCl 150 mM NaCl pH 7.4, 1 h room temperature
Method: Volumes of nanostructure were added to 1 ml aliquots of 10 mM Tris-HCl 150 mM NaCl pH 7.4 containing 0, 0.5, 1, 2, 4 and 8 mM CaCl2) in microcentrifuge tubes so that the final concentration of phosphorus was 0.5 mM. The samples were vortexed, incubated at room temperature for 1 h and centrifuged for 10 min at 12000×g. The supernatants (700 μl) were removed and analyzed by ICP for phosphorus concentrations. The phosphorus concentrations were normalized to the concentration in corresponding samples without CaCl2) and plotted as ‘% remaining in solution’ against the concentration of CaCl2) in the reaction mixture. When 90% or more remains in solution the material is considered robust against calcium induced aggregation.

Row | stability of coated nanostructures under the coating / process conditions [2] | hydrolysis of the coating bound to polymeric nanostructures ([1]; neutral to basic conditions) | Substance | Loss of coating [1] [%] | Ca resistance [3]
1 |  |  | 4-[ω-methyl-(ethyleneoxy)12-20]hepta-1,6-diene [Compound 43] | 0 | 
2 | degraded substantially |  | N,N-bis(prop-3-trimethoxysilyl-1-yl)-2-[ω-methyl-(ethyleneoxy)8-11]acetamide [Compound 54] |  | 
3 |  | prone to slow hydrolysis | 1-[ω-methyl-(ethyleneoxy)12-20]-3-(prop-3-triethoxysilyl-1-yl- [A] | 5 | Y (When 90% or more remains in solution the material is considered robust against calcium induced aggregation)
